Data published in article PMC10698858 (Journal of chemical information and modeling, 2023).

Legend:
blaCTX-M15 = blaCTX-M15 (Escherichia coli O25b:H4, UniProt A0A5R8T042); assay: Beta-lactamase inhibition assay; type: biochemical, Salmonella typhi; details: for BL inhibitory activity: nitrocefin, 490 nm
Artemia salina = assay: Brine shrimp lethality; type: in vivo; details: for % mortality / dead / live: 10 nauplii, 24 hrs

Chain of blaCTX-M15 (A0A5R8T042 29-291): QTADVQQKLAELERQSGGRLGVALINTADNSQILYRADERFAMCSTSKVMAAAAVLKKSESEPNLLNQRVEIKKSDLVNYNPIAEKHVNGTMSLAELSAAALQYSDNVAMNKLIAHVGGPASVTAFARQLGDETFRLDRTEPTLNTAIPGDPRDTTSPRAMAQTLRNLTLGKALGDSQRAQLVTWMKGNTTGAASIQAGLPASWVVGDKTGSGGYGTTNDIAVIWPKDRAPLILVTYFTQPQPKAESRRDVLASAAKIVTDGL

In the case of `O=C(O)[C@H]1/C(=C/CO)O[C@@H]2CC(=O)N21` [abcam Clavulanic acid, Clavulanic acid], the Ki (blaCTX-M15) is reported as 38.9 µM, the BL inhibitory activity (blaCTX-M15; concentration 0.03 ug/ml) is reported as 0.9345 and the BL inhibitory activity (blaCTX-M15; concentration 0.09 ug/ml) is reported as 0.8498. It also gave a BL inhibitory activity (blaCTX-M15; concentration 1 ug/ml) of 0.753, a BL inhibitory activity (blaCTX-M15; concentration 5 ug/ml) of 0.623 and a BL inhibitory activity (blaCTX-M15; concentration 10 ug/ml) of 0.53. It also gave a BL inhibitory activity (blaCTX-M15; concentration 50 ug/ml) of 0.239, a BL inhibitory activity (blaCTX-M15; concentration 100 ug/ml) of 0.09 and a BL inhibitory activity (blaCTX-M15; concentration 150 ug/ml) of 0.02. The BL inhibitory activity (blaCTX-M15; concentration 200 ug/ml) was 0.015.
With `COc1cccc2c1C(=O)c1c(O)c3c(c(O)c1C2=O)C[C@@](O)(C(=O)CO)C[C@@H]3O[C@H]1C[C@H](N)[C@H](O)[C@H](C)O1` [Doxorubicin] the “% mortality” value (Artemia salina; 25 μg/ml) was 10%, the dead (Artemia salina; 25 μg/ml) was 1 and the live (Artemia salina; 25 μg/ml) was 9. For the same molecule, the “% mortality” value (Artemia salina; 50 μg/ml) was 20%, the dead (Artemia salina; 50 μg/ml) was 2 and the live (Artemia salina; 50 μg/ml) was 8. The “% mortality” value (Artemia salina; 75 μg/ml) was 20%, the dead (Artemia salina; 75 μg/ml) was 2 and the live (Artemia salina; 75 μg/ml) was 8. The “% mortality” value (Artemia salina; 100 μg/ml) was 30%, the dead (Artemia salina; 100 μg/ml) was 3 and the live (Artemia salina; 100 μg/ml) was 7. It also gave an LD50 (Artemia salina; brine shrimp, tested 25-100 μg/ml) of 187 µg/mL.
